The structures appear in SMILES notation. The source made the active and inactive calls. The calls are words filed in the database; no cut-off is given here.

This note sets out measurements from ChEMBL document CHEMBL1157866, “Evaluation of anti-pigmentary effect of synthetic sulfonylamino chalcone” (Eur J Med Chem, 2010).

Series [1] concerns the target T1, Tyrosinase (Agaricus bisporus, UniProt O42713).
T1 sequence (O42713 whole entry): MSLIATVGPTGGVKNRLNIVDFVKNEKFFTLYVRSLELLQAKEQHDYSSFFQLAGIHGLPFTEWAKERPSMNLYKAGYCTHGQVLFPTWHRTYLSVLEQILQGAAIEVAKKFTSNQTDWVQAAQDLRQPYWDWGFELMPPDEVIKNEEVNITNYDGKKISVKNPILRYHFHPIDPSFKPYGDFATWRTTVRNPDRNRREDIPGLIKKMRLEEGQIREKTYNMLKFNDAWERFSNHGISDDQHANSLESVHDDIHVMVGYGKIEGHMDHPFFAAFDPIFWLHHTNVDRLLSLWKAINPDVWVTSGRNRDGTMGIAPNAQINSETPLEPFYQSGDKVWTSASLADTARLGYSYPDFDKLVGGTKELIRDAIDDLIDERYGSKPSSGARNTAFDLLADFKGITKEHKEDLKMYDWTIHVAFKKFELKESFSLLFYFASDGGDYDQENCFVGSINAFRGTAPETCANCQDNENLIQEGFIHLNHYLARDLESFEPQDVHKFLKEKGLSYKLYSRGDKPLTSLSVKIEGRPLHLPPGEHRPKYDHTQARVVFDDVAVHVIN
Briefly: (§1) Inhibition of monophenolase activity of mushroom tyrosinase using as L-tyrosine substrate by spectrophotometric analysis.

Series [2] deals with T2, Tyrosinase (Agaricus bisporus) (UniProt O42713).
T2 sequence (whole entry): T1 sequence (O42713 whole entry)
Described as §1.

Series [3] relates to B16. In words: cells. The settings on record: Mus musculus, B16, 48 h.
Series [4] has as its target T1, Tyrosinase. In words: Competitive inhibition of monophenolase activity of mushroom tyrosinase using as L-tyrosine substrate by Lineweaver-Burke plot analysis.
For series [5], the system named is B16. In words: Reduction of alpha-MSH-induced tyrosinase related protein 1 expression in mouse B16 cells after 2 days by Western blot analysis. Type of series: functional, cell-based. In general terms: In western blotting, separated proteins are transferred to a membrane and probed.
A short description of series [6]: Cytotoxicity against mouse B16 cells at 20 uM after 72 hrs by MTT assay. Type of series: cell-based. The settings on record: read-out: Survival. On the technique in general: Tetrazolium dyes change colour on reduction, which living cells bring about.
Series [7] can be described thus: Cytotoxicity against mouse B16 cells at 10 uM after 72 hrs by MTT assay. Type of series: cell-based. The settings on record: read-out: Survival.
The test system of series [8] is B16. Briefly: Reduction of alpha-MSH-induced tyrosinase related protein 2 expression in mouse B16 cells after 2 days by Western blot analysis. Type of series: functional, cell-based.
Series [9] relates to B16. In words: Cytotoxicity against mouse B16 cells up to 30 uM after 48 hrs by MTT assay. Type of series: cell-based. The settings on record: b16, 48 h.
The test system of series [10] is B16. Briefly: Reduction of alpha-MSH-induced tyrosinase expression in mouse B16 cells after 2 days by Western blot analysis. Type of series: functional, cell-based.
The subject of series [11] is Cavia porcellus. Briefly: Toxicity in UV-induced hyperpigmentation brown guinea pig model at 0.3% applied topically bid for 4 weeks. Type of series: organism-based. The settings on record: in vivo, topical_or_ocular, 672 h.
In series [12] the test system is B16. In words: Inhibition of alpha-MSH-induced melanin production in mouse B16 cells assessed as reduction pigmentation at 20 uM after 48 hrs. Type of series: functional, cell-based.
Series [13] deals with B16. In words: Inhibition of melanin production in mouse B16 cells after 48 hrs. Type of series: functional, cell-based.
Series [14] can be described thus: Cytotoxicity against mouse B16 cells at 30 uM after 72 hrs by MTT assay. Type of series: cell-based. The settings on record: read-out: Survival.
Series [15] concerns B16. In words: Inhibition of alpha-MSH-induced melanin production in mouse B16 cells after 48 hrs.
The subject of series [16] is Cavia porcellus. In words: Reduction of pigmentation in UV-induced hyperpigmentation brown guinea pig model at 0.3% applied topically bid for 4 weeks. Type of series: functional, organism-based.
The test system of series [17] is B16. In words: Reduction of alpha-MSH-induced microphthalmia-associated transcription factor expression in mouse B16 cells after 2 days by Western blot analysis. Type of series: functional, cell-based.

As a reminder, the IC50 is the concentration at which inhibition is half-maximal. For orientation: Ki means a dissociation constant, usually derived from enzyme kinetics or from competition with a known ligand. The low end stands for higher affinity, the high end for lower affinity. As for `O=C(/C=C/c1ccc(O)cc1)c1ccc(NS(=O)(=O)c2ccccc2)cc1`, the IC50 in series [1] stood at 22.5 µM; in [3] it was 24.2 µM. The Activity entry in series [2] is “Dose-dependent effect”. This compound had a Ki in [4] of 13.3 µM.

In the case of `Nc1ccc(S(=O)(=O)Nc2ccc(C(=O)/C=C/c3ccc(O)cc3)cc2)cc1`, the figures for the IC50 in [1] and in [3] were 30.7 µM and 21.2 µM, respectively. Besides, in series [2], the Activity entry was “Dose-dependent effect”. For the same compound, in series [4], the Ki was determined as 16.7 µM.

As to `O=C(/C=C/c1ccc(O)cc1)c1ccc(NS(=O)(=O)c2ccc([N+](=O)[O-])cc2)cc1`, in [1], the IC50 was found to be 15.2 µM. The Activity entry in series [2] is “Dose-dependent effect”. In addition, in series [4], affinity was put at a Ki of 11.4 µM.

In the case of `O=C(/C=C/c1ccc(O)cc1)c1ccc(NS(=O)(=O)c2ccc(O)cc2)cc1`, the IC50 amounted to 58.8 µM in [1] and 32.1 µM in [3]. Besides, the Activity result in [2] is “Dose-dependent effect”. In [4], this compound had a Ki of 25.2 µM.

In the case of `O=C(/C=C/c1ccc(O)cc1)c1ccc(NS(=O)(=O)c2ccc(F)cc2)cc1`, the values for the IC50 in [1] and in series [3] were 29.1 µM and 19.8 µM, respectively. Besides, the Activity entry in [2] was “Dose-dependent effect”. In series [4], the Ki is 14.9 µM.

In the case of `Cc1ccc(S(=O)(=O)Nc2ccc(C(=O)/C=C/c3ccc(O)cc3)cc2)cc1`, the result in series [5], in series [8], in series [10], in series [12], in series [13] and in series [16] was Active. The outcome in series [17] was Active. In addition, the values for the concentration for half-maximal inhibition (IC50) in [1] and in series [3] were 23.3 µM and 10.4 µM, respectively. Also, the Activity entry was “Dose-dependent effect” in [2], “Non-toxic” in [9], “Non-toxic” in [11] and “Dose-dependent effect” in series [15]. The viability at 72 h, 20 µM in series [6] amounted to 84%. For the same compound, in [7], the viability at 72 h, 10 µM turned out to be 92%. Besides, the viability at 72 h, 30 µM in series [14] came to 78%. Also, the affinity in [4], expressed as Ki, was 12.6 µM.

On to `O=C(/C=C/c1ccc(O)cc1)c1ccc(O)cc1` [4,4'-DIHYDROXYCHALCONE], for which the 50% inhibitory concentration (IC50) was 4.8 µM in series [1] and 48.7 µM in [3]. In addition, the result in [12] was Active. The Ki in series [4] came to 2.9 µM.

On to `Nc1ccc(C(=O)/C=C/c2ccc(O)cc2)cc1`, for which the IC50 in series [1] is 8.3 µM; in [3] it was 28.1 µM. Moreover, the outcome in series [12] was Active. Also, the Ki in [4] stood at 3.9 µM.
